The data set is described as follows: in vitro. The conditions noted are these: human, hela cells, % viability.

Turning to `O=C(COC(=O)C1CCC(N2C(=O)c3ccccc3C2=O)CC1)c1ccc(-c2ccccc2)cc1` (stereo not shown) [CBK264789], the viability – broadly, a read-out of living cells in per cent, often relative to untreated cells – at 28.5 h, 10 µM was 90.4%.
Same read-out and setting: next, `CC(C)(C)c1cc(CCCOC(=O)CNc2ccccc2)cc(C(C)(C)C)c1O` [CBK261939]: 101%.
On to `CCC(=O)c1c(O)n(-c2ccccc2)c(=O)[nH]c1=O` [CBK287862], for which, for the setting “bulk resorufin, single well”, the viability at 28.5 h, 10 µM was determined as 96.8%.
For `CS(=O)(=O)Nc1ccc(C2=NN(S(C)(=O)=O)C(c3ccc4nccnc4c3)C2)cc1` (stereo not shown) [CBK267546], the viability at 28.5 h, 10 µM was found to be 83.1%.
For `COc1cc(/C=N/NC(=O)c2ccncc2)ccc1OC(=O)c1cccs1` [CBK262278], the viability at 28.5 h, 10 µM stood at 103%.
On the same count and under the same terms, in the case of `COc1ccc(CNC2CCCc3c2cnn3C)c(OC)c1` (stereo not shown) [CBK304875] it was 103%; in that of `CC1Cc2ccccc2N1C(=O)C1C2C=CC(O2)C1C(=O)O` (stereo not shown) [CBK286891], 86.9%; in that of `CCCc1nnc(SCC(=O)Nc2cccc(C(F)(F)F)c2)n1N` [CBK028004], 104%.
The same measure, in the same setting: in the case of `Cc1cc(NC(=O)Cc2cn3ccsc3n2)ccc1N1CCCC1` [CBK306080] it was 79.8%.
As to `CC1CCN(c2ccc(C(C)NC(=O)CCC3C(=O)NC(=O)NC3=O)cc2)CC1` (stereo not shown) [CBK285849], under “bulk resorufin, single well”, the viability at 28.5 h, 10 µM was found to be 96.9%.
As to `O=c1[nH]nc2cc(NCc3ccc(Cl)cc3)ncn12` [CBK288479], the viability at 28.5 h, 10 µM was 114%.
Consider `CCc1nnc2ccc(NCc3ccccc3)nn12` [CBK287888], for which the viability at 28.5 h, 10 µM amounted to 110%.
Same read-out and setting: next, `N#Cc1cc(Cl)ccc1CN1CCCCC1c1[nH]ncc1C(N)=O` (stereo not shown) [CBK304746]: 88.5%; `CC(C(=O)N1CCC2(CC1)NC(=O)c1ccccc1N2)(c1ccccc1)c1ccccc1` [CBK286308]: 108%; `COc1ccc(NC(=O)CSc2nnc(C(O)c3ccccc3)n2C)cc1` (stereo not shown) [CBK266053]: 110%.
Regarding `CN(C)C(=O)CN1C(=O)[C@H]2CCCN2C(=O)c2ccccc21` [CBK282854], the viability at 28.5 h, 10 µM was determined as 91.2%.
On the same count and under the same terms, in the case of `CCN1CCN(c2cc(N3CCN(C(=O)COc4ccccc4F)C(C)C3)c([N+](=O)[O-])cc2F)CC1` (stereo not shown) [CBK267513] it was 100%; in that of `O=C(CN1CCOCC1)NC(=O)Nc1ccccc1` [CBK269213], 98%; in that of `Cc1csc(C(Cc2cccs2)NC(=O)CN(C)C)n1` (stereo not shown) [CBK285124], 97.9%.
The same measure, in the same setting: in the case of `CC(C)C(=O)N1CCC(n2nc(-c3cccs3)ccc2=O)CC1` [CBK284181] it was 86.6%; in that of `O=S(=O)(NCCSCc1ccco1)c1ccc(Cl)cc1` [CBK232206], 85.6%; in that of `CC(C)[C@H](CO)NC(=O)c1cnc(-c2ccc(Cl)cc2)c(-c2ccco2)c1` [CBK036658], 108%.
Regarding `COc1ccc(OC)c(C(O)c2coc3ccc(O)c(CN(C)C)c23)c1` (stereo not shown) [CBK261314], the viability at 28.5 h, 10 µM was determined as 114%.
As for `O=C1NC(=O)C(=Cc2ccc([N+](=O)[O-])o2)C(=O)N1` [CBK017848], the viability at 28.5 h, 10 µM (bulk resorufin, single well) turned out to be 106%.
For the compound `CC(c1ccccc1)N1Cc2cccc(C(=O)O)c2C1=O` (stereo not shown) [CBK291252], the viability at 28.5 h, 10 µM was found to be 97.6%.
In the case of `Cc1nnc(NC(=O)c2ccc3c(c2)OCO3)s1` [CBK287358], the viability at 28.5 h, 10 µM stood at 104%.
The same measure, in the same setting: in the case of `COc1ccc(C(=O)Nc2ccccc2Nc2cc(-c3ccccc3)nn2-c2ccccc2)cc1` [CBK261296] it was 88.4%; in that of `O=C(Cn1cc(C(=O)NCC2(c3ccccc3Cl)CC2)ccc1=O)NC1CCCCC1` [CBK285985], 92.7%.
As for `CN(C)CC(=O)Nc1ccc(Br)cc1C(=O)c1ccccc1Cl` [CBK264663F], the viability at 28.5 h, 10 µM was found to be 91.4%.
The same measure, in the same setting: next, `Cn1ccnc1CN1CCCN(C(=O)c2cccc(C#N)c2)CC1` [CBK303998]: 85.2%; `COc1ccc(NC(=O)c2ccc(-c3cnc(Nc4ccc(N5CCOCC5)cc4)c4nccn34)cc2)cc1` [CBK091240]: 96.7%.
The same measure, in the same setting: next, `O=C1NCCN1CCOc1nccnc1-c1ccc(F)cc1` [CBK106898]: 97.8%; `Cc1c(C(N)=O)sc2ncn(CC(=O)NCCc3ccccc3)c(=O)c12` [CBK268514]: 90.4%.
The same measure, in the same setting: in the case of `O=C(NC(C(=O)O)c1ccccc1)NC12CC3CC(CC(C3)C1)C2` (stereo not shown) [CBK268313] it was 109%; in that of `CC(C)C[C@H](NC(=O)COc1ccc2nc3n(c(=O)c2c1)CCCCC3)C(=O)O` [CBK286656], 88.3%.
Regarding `Cc1ccc(C(=O)Nc2ccc(S(=O)(=O)N3CCCC3)cc2)cc1S(=O)(=O)Nc1ccccc1` [CBK268054], the viability at 28.5 h, 10 µM came to 47.4%.
For `C=CCN1C(=O)CC2(C1=O)C(=O)N(CCCn1c(=O)n(C)c3ccccc31)c1ccc(Cl)cc12` (stereo not shown) [CBK075411], the viability at 28.5 h, 10 µM was determined as 94.6%.
For `COc1ccc(N2CCN(CC(O)COc3ccc4c(C)cc(=O)oc4c3)CC2)cc1` (stereo not shown) [CBK269847], the viability at 28.5 h, 10 µM was determined as 86.5%.
Still for that read-out and setting: in the case of `COc1ccc(O)c(C(=O)c2cnn(-c3ccccn3)c2)c1` [CBK295141] it was 97.9%.
Still for that read-out and setting: in the case of `CC1=C(C)CC(C(=O)Nc2ccc3c(c2)oc2ccccc23)C(C(=O)O)C1` (stereo not shown) [CBK263533] it was 102%; in that of `N#Cc1c(NC(=O)c2cccc(S(=O)(=O)Nc3ccc(C(=O)O)cc3)c2)sc2c1CCCC2` [CBK266762], 106%.
With `CCCc1cc(C(=O)NC2CCN(Cc3cccc(F)c3)CC2)[nH]n1` [CBK282465], the viability at 28.5 h, 10 µM was determined as 100%.
Take `N#Cc1ccc(-c2cc(N3CCN(C(=O)c4ccco4)CC3)ncn2)cc1` [CBK037813]: the viability at 28.5 h, 10 µM was determined as 98.2%.
Still for that read-out and setting: in the case of `Cc1cccn2c(=O)c(/C=C3\SC(=S)N(C(C)c4ccccc4)C3=O)c(NCCCn3ccnc3)nc12` (stereo not shown) [CBK263836] it was 92.9%.
With `COc1ccc(C(F)(F)F)cc1N` [CBK038366], the viability at 28.5 h, 10 µM was found to be 89.6%.
As for `CN(C)c1ccc(CC(=O)N2CCc3ccccc3C2)cc1` [CBK200340], the viability at 28.5 h, 10 µM is 93.7%.
Take `COC1CCC(C(=O)Nc2cnc(-c3cccc(OC(F)(F)F)c3)c(-c3cccnc3)n2)CC1` (stereo not shown) [CBK036754]: the viability at 28.5 h, 10 µM worked out at 97.4%.
For `CCOc1ccc(NC(=O)N(Cc2ccccn2)CC2CCCO2)cc1` (stereo not shown) [CBK306847], the viability at 28.5 h, 10 µM turned out to be 83.7%.
The same measure, in the same setting: next, `Cc1cc2c(cc1NC(=O)[C@@H]1C[C@@H]3C=C[C@H]1C3)n(C)c(=O)n2C` [CBK281689]: 106%.
Same read-out and setting: next, `COc1ccc(CCNc2nc3c(c(=O)n(C)c(=O)n3C)n2Cc2ccccc2Br)cc1OC` [CBK267495]: 96.7%; `COc1ccc(OCc2nc(C)cc(=O)n2CC(=O)NC(C)C)cc1` [CBK300525]: 99%; `Cc1csc(Sc2cc(N3CCCC3)ncn2)n1` [CBK093745]: 100%.
The same measure, in the same setting: next, `CC(C)CCOc1nccnc1-c1ccc2c(c1)OCO2` [CBK106711]: 104%.
For `CC1(C)Cc2nc(N3CCOCC3)ncc2C(NC(=O)c2cccs2)C1` (stereo not shown) [CBK307369], the viability at 28.5 h, 10 µM amounted to 92.7%.
As for `CCOc1ccc(/N=c2\scc(-c3ccc(OC)c(Br)c3)n2CCc2ccccc2)cc1` [CBK263654B], the viability at 28.5 h, 10 µM was 74.7%.
Same read-out and setting: next, `O=C(c1nccs1)C1CCN(C(=O)Cc2ccc(F)cc2)CC1` [CBK284199]: 104%; `O=c1[nH]c(=O)n(C2CC(O)C(CO)O2)cc1F` (stereo not shown) [CBK011695]: 49.6%.
Still for that read-out and setting: next, `O=c1[nH]nc(-c2cccs2)n1-c1cccnc1` [CBK283854]: 101%; `Cc1cc(C)nc(Nc2n[nH]c(Cc3ccccc3)n2)n1` [CBK267023]: 96.3%.
On the same count and under the same terms, in the case of `CN(C)CCNC(=O)c1ccc(-c2cnc(OCC3CCN(C(=O)OC(C)(C)C)CC3)nc2)cc1` [CBK167544] it was 89.8%.
In the case of `CCOC(=O)C(CNC(=O)c1c(C)nn(C)c1C)Cc1ccccc1` (stereo not shown) [CBK305276], the viability at 28.5 h, 10 µM worked out at 90%.
For the compound `CCc1c(C)nc2n(c1=O)C(CS(=O)(=O)c1ccccc1)CS2` (stereo not shown) [CBK268949], the viability at 28.5 h, 10 µM was found to be 94.7%.
Consider `CC(C)CCNC(=O)N1CCC(C(=O)O)CC1` [CBK156075], for which the viability at 28.5 h, 10 µM is 95.3%.
`Cc1cc(C2CCCN(C(=O)CC3OCCc4sccc43)C2)n[nH]1` (stereo not shown) [CBK305241]: the viability at 28.5 h, 10 µM was 94.3%.
As for `CCn1c2ccccc2c2cc(CN(CCN(C)C)Cc3ccccc3)ccc21` [CBK261924], the viability at 28.5 h, 10 µM worked out at 102%.
For `Cc1nn(-c2ccccc2)c2[nH]c(=O)c(CNC(C)C)cc12` [CBK282899], the viability at 28.5 h, 10 µM is 93.1%.
In the case of `Cc1cc(Cl)c(S(=O)(=O)Nc2cccnc2)cc1OCC(N)=O` [CBK266523], the viability at 28.5 h, 10 µM amounted to 104%.
In the case of `Cc1nn(C)c(C)c1NC(=O)COc1ccccc1C#N` [CBK305850], the viability at 28.5 h, 10 µM came to 95%.
For the compound `CC(=O)c1sc(NC(=O)c2ccc(N3C(=O)CCC3=O)cc2)nc1C` [CBK287334], the viability at 28.5 h, 10 µM is 86.5%.
With `OCCNc1nc(Nc2ccc(Br)cc2)nc2ccccc12` [CBK266724C], the viability at 28.5 h, 10 µM was 87.7%.
Same read-out and setting: in the case of `Cc1noc(C)c1S(=O)(=O)N1CCOCC1c1cccc(F)c1` (stereo not shown) [CBK304171] it was 109%.
Same read-out and setting: next, `COC(=O)CC[C@H]1CNC(=O)[C@@H]2[C@@H](CCN2S(C)(=O)=O)N1C` [CBK289019]: 112%; `O=c1oc(-c2ccoc2)nn1Cc1ccccc1F` [CBK283726]: 98.5%; `Cc1oc2c(CN(C)C)c(O)ccc2c(=O)c1-c1cnn(-c2ccccc2)c1` [CBK264496]: 101%.
As to `Fc1ccc(-c2c[nH]nc2C2CCOCC2)cc1` [CBK283464], the viability at 28.5 h, 10 µM came to 103%.
Same read-out and setting: next, `Cc1ccc(C(=O)NC2CCCCCC2)cc1C` [CBK083665]: 86%; `O=C(Cc1ccc([N+](=O)[O-])cc1)Nc1cc(C(=O)O)cc(C(=O)O)c1` [CBK263345]: 100%; `CSc1nnc(-c2cccs2)n1C` [CBK067702]: 87.9%.
Turning to `O=C(NCc1nc2ccccc2s1)c1ccc2c(c1)OCCO2` [CBK295325], the viability at 28.5 h, 10 µM was found to be 107%.

These data come from publication PMC12040169 (PLOS Biology, 2025).
